Where no end group is shown, it is not given here. A value given as a limit tells only on which side of the number the result lay.

In series [1] the target is T1, binding of resistin and CAP1 (Homo sapiens, UniProt Q9HD89).
T1 construct: host or cells: CAP1: endogenous, THP-1 cell lysate
T1 sequence (Q9HD89 19-108): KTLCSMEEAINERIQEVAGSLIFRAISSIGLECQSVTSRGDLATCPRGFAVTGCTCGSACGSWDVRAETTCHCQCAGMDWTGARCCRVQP
Briefly: In vitro pull down assay of mFc-hResistin with CAP1 from THP-1 cell lysates (western blot with CAP1 antibody). The following applies: for inhibition of binding of resistin and CAP1: each peptide at 50 μM, mFC-hResistin 1 μg/ml. As to the method: THP-1 cells were lysed with lysis buffer (20 mM Tris pH 7.5, 150 mM NaCl, 1% Triton X-100, 0.25% sodium deoxycholate, 1 mM EDTA, 1 Mm NaF, 1 mM Na3VO4, and, protease inhibitor cocktail) to extract proteins. mFc-hResistin (0.5 ug) protein and VS_peptide (SEQ ID NO: 2) at 10 μM, 100 μM, and 500 μM were added to the extracted THP-1 protein (500 μg), followed by incubation at 4° C. overnight. mFC beads (20 μl) were added, and the protein complexes were pulled down at 4° C. for 3 hours, and then washed three times with lysis buffer. Then, SDS-PAGE sample buffer containing β-mercaptoethanol was added, followed by boiling at 100° C. for 5 minutes, and then a supernatant was obtained through centrifugation. It was investigated by western blotting using the hCAP1 antibody and mFc-HRP antibody whether the binding of hCAP1 and mFc-hResistin was inhibited by VS_peptide. Specifically, THP-1 cell lysates were treated with 1 μg/ml of mFC-hResistin, treated with VS_peptide (SEQ ID NO: 2) at 10 μM, 100 μM, and 500 μM each, and then pulled down using Fc beads. The proteins bound to beads were separated by SDS-PAGE, and subjected to western blotting using the CAP1 antibody. THP-1 cell lysates were treated with mFC-hResistin (1 μg/ml) and each of the peptides of SEQ ID NOS: 1 to 7 at 50 μM each, and pulled down using Fc beads. Thereafter, the proteins bound to Fc beads were separated by SDS-PAGE, and then subjected to western blotting using the CAP1 antibody.
(In general: Immunoblotting shows a protein as a band on a membrane.)

The subject of series [2] is NF-κB (p65 phosphorylation). Briefly: NF-κB activity by p65 phosphorylation western blot in resistin-treated THP-1 cells. Format: cell-based, human. As to the method:
To investigate the effect of VS_peptide (SEQ ID NO: 2) on NF-κB activity, p65 phosphorylation was compared between the addition of VS_peptide (SEQ ID NO: 2) and the addition of AA_peptide (SEQ ID NO: 3). THP-1 cells were treated with resistin to activate NF-κB, and VS_peptide (SEQ ID NO: 2) and AA_peptide (SEQ ID NO: 3) were added, and then western blotting using the p-p65 antibody was performed for NF-κB activity.

Series [3] has as its system AMPK (phosphorylation of AMPK and ACC, LDLR expression). The series can be described thus: AMPK activity by western blot in HepG2 cells treated with AICAR and resistin. To be noted: peptide 50 μM, compared with addition of only resistin. It is filed as cell-based. As to the method:
To investigate the effect of VS_peptide (SEQ ID NO: 2) on AMPK activity, AMPK phosphorylation was compared between the addition of VS_peptide (SEQ ID NO: 2) and the addition of AA_peptide (SEQ ID NO: 3). To investigate the effect of VS_peptide (SEQ ID NO: 2) on AMPK activity, HepG2 cells were treated with AICAR to activate AMPK and treated with resistin, and the cells were treated with VS_peptide (SEQ ID NO: 2) and AA_peptide (SEQ ID NO: 3) at 50 μM each. The western blotting was performed to investigate AMPK activity in HepG2 cells through the phosphorylation of AMPK, the phosphorylation of ACC, which is a substrate of AMPK, and the expression level of LDLR.

The nature of series [4]: Peptide pharmacokinetics by PET imaging of radioisotope-labeled peptide. Format: in vivo, mice. To be noted: tail vein injection, PET images at 0-48 hours. As to the method: VS_peptide and albumin-conjugated VS_peptide were injected at 36-40 μCi per mouse into the tail vein of C57BL/6 normal mice. After the injection, PET images were acquired at intervals of 0, 1, 2, 4, 24, and 48 hours using the GENISYS[…] machine from Sofie Bioscience. After the image acquisition, pharmacokinetic data were obtained by monoexponential fitting using the image analysis program Amide.
To increase drug delivery efficiency and drug effect duration of VS_peptide (SEQ ID NO: 2), albumin was bound to the peptide. VS_peptide (SEQ ID NO: 2) and albumin-conjugated VS_peptide (SEQ ID NO: 2) were labeled with a radioisotope, and then injected at 36-40 uCi each into the tail vein of male mice aged 8 weeks. PET images were acquired at intervals of 0, 1, 2, 4, 24, and 48 hours, and kinetics of the peptide in the body were observed.

Series [5] has as its target T2, binding of resistin and CAP1 (rhCAP1, mFc-hResistin) (Homo sapiens, UniProt Q9HD89).
T2 sequence (Q9HD89 19-108): T1 sequence (Q9HD89 19-108)
Briefly: Competitive ELISA, mFc-hResistin binding to plate-coated rhCAP1. As to the method: Each well of a 96-well plate were coated with hCAP1 protein at a concentration of 2.5 μg/ml for 12 hours (overnight) at room temperature. Each well was washed two times with phosphate buffered saline (PBS, pH7.4). Each well was blocked with a blocking buffer containing 3% BAS at room temperature for 1 hour. The blocking buffer containing 3% BSA was mixed with 5 ug/ml mFc-hResistin protein and VS_peptide [SEQ ID NO: 2] at various concentrations (10 uM, 30 uM, 100 uM), followed by pre-incubation at room temperature for 1 hour. After the blocking solution was removed from the 96-well plate, 100 μl of the pre-incubated mixture of mFc-hResistin protein and VS_peptide (SEQ ID NO: 2) was dispensed in each well, followed by incubation at room temperature for 2 hours. Upon the completion of the incubation, each well was washed two times with PBS. After the anti-mouse-Fc-HRP antibody was diluted in a blocking buffer containing 3% BSA at 1:1000, 100 μl of the diluted antibody was dispensed in each well, followed by incubation at room temperature for 1 hour. Upon the completion of the incubation, each well was washed two times with PBS. […] After 100 μl of a stop solution was dispensed in each well, and the absorbance was measured at 450 nm using an ELISA reader. […] The resistin bound to the HRP-conjugated mFc antibody was measured by ELISA at an absorbance of 450 nm.
On the technique in general: In an ELISA, binding on a coated surface is turned into a signal by an enzyme label.

For another series, the system named is MDA-MB-231 cells. Briefly: Cell migration analysis of resistin-treated breast cancer cells. It is filed as cell-based, human. The following applies: MDA-MB-231, resistin 50 ng/ml, 30 μM and 50 μM, compared with AA_peptide. As to the method:
MDA-MB-231 cells were suspended in DMEM medium (0.1% FBS), and then the suspension was added at a concentration of 1×10^5 cell/ml per well to uniformly spread throughout the upper chamber of 6-well Transwell. In the lower chamber, each of 50 μM VS_peptide (SEQ ID NO: 2) and AA_peptide (SEQ ID NO: 3) was mixed with DMEM medium (0.1% FBS), and resistin was added at 100 ng/ml. Thereafter, the cells were incubated in an incubator at 37° C. in 5% CO2 for 24 hours. The cells penetrating the Transwell were stained using Crystal violet staining, and then quantified using the Image J program.
MDA-MB-231 cells were suspended in DMEM medium, and then placed in 24-well plates at a concentration of 1×10^5 cell/ml per well. After 50 ng/ml of resistin was placed in each well, VS_peptide (SEQ ID NO: 2) and AA_peptide (SEQ ID NO: 3) were placed at 30 μM and 50 μM, respectively. Thereafter, the cells were incubated in an incubator at 37° C. and 5% CO2 for 6-15 hours. Thereafter, cell migration after 6 hours and 15 hours was observed using a microscope.

Series [6] concerns the target T3, binding of resistin and CAP1 in THP-1 cells (Homo sapiens, UniProt Q9HD89).
T3 construct: endogenous in cells; host or cells: THP-1 cells (CAP1 endogenous)
T3 sequence (Q9HD89 19-108): T1 sequence (Q9HD89 19-108)
Briefly: Immunoprecipitation of resistin/CAP1 from treated THP-1 cells. Format: cell-based. To be noted: THP-1 cells treated with resistin and peptide for 12 hours. As to the method:
THP-1 cells were treated with resistin or resistin and a peptide for 12 hours, and then lysed with lysis buffer (20 mM Tris pH 7.5, 150 mM NaCl, 1% Triton X-100, 0.25% sodium deoxycholate, 1 mM EDTA, 1mM NaF, 1mM Na3VO4, and protease inhibitor cocktail). The resistin antibody or CAP1 antibody was added to the cell lysates, followed by immunoprecipitation at 4° C. for 3 hours. Mouse IgG was added for control. Protein A/G agarose beads were added to the THP-1 protein and CAP1 antibody complex, followed by incubation, and then through centrifugation, only beads were left and the supernatant was removed. Thereafter, the proteins bound to beads were separated by SDS-PAGE, and after electrophoresis, the gel was transferred onto the polyvinylidene fluoride (PVDF, Millipore), and then blocked with 5% skim milk at room temperature for 30 minutes. […] After the incubation, the membrane was sufficiently washed at least three times for 10 minutes each, and bands were detected using ECL detection kit (Invitrogen, WP20005), and then analyzed. […]

“PPPPGPPPPPAATSSGSDES (Synthetic AA peptide) [AA_peptide, VS replaced with AA; used as control peptide, reference compound]”: the “inhibition of binding of resistin and CAP1” value in series [1] is on record as “failed to inhibit”. The “p65 phosphorylation induced by resistin” value in series [2] is given as “not inhibited”. In series [3], the “expression level of LDLR” value is reported as “similar”, the “phosphorylation of ACC” value is “not increased” and the “phosphorylation of AMPK” value was “not increased”.

Consider PPPPGPPPPPVSTSSGSDES [VS_peptide], for which, in series [4], the “time the administered medicine remains in the body” value was at most 4 h. The “inhibition of binding of resistin and CAP1” value in series [1] is on record as “effectively inhibited”. For the same sequence, the “amount of CAP1 binding to resistin” value in series [1] (peptide at 10, 100 and 500 μM, dose-dependent) is on record as “reduced”. For the same sequence, the “OD value (450 nm) of resistin bound to CAP1” value in series [5] (addition of peptide vs non-addition, 10, 30, 100 uM, dose-dependent) was “decreased”. In addition, the inhibition at 100 µM in series [5] (peptide at 100 μM, read-out: inhibitory effect on binding of resistin and CAP1) is about 25%. In addition, the “p65 phosphorylation induced by resistin” value in series [2] is recorded as “inhibited”. In addition, the “amount of cell migration” value with MDA-MB-231 cells is given as “smaller”. Also, the “binding of resistin and CAP1 in cells (bands in IP/western blot)” value in series [6] is “no bands”. In addition, in series [3], the “expression level of LDLR” value is reported as “increased”, the “phosphorylation of ACC” value was “increased” and the “phosphorylation of AMPK” value is recorded as “increased”.

On to “GPPPPPVSTS (Synthetic pep10 peptide) [Shortened peptide based on VS and proline rich-1]”, for which, in series [1], the “inhibition of binding of resistin and CAP1” value was “inhibited the binding of resistin and CAP1 at similar levels to the VS_peptide”.

As for “AAAAGPPPPPVSTSSGSDES (Synthetic pro1A peptide) [Proline rich-1 region replaced with A]”, the “inhibition of binding of resistin and CAP1” value in series [1] is “inhibited the binding of resistin and CAP1 at similar levels to the VS_peptide”.

As to “AAAAGAAAAAAATSSGSDES (Synthetic AAA peptide) [Proline rich regions and VS replaced with A]”, the “inhibition of binding of resistin and CAP1” value in series [1] is “allowed the strongest binding of resistin and CAP1”.

As to “PPPPGAAAAAVSTSSGSDES (Synthetic pro2A peptide) [Proline rich-2 region replaced with A]”, the “inhibition of binding of resistin and CAP1” value in series [1] is “inhibited the binding of resistin and CAP1 at similar levels to the VS_peptide”.

Source of the values: patent US11091515B2, “Polypeptide derived from CAP1 and pharmaceutical composition comprising same as effective ingredient” (Seoul National University Hospital, priority 2017, dated 2021).
